{
  "source": "PubChem BioAssay (NCI)",
  "experiment_in_all_cases": "inhibition of tumour cell growth, NCI panel, 48 h",
  "key": {"SK-MEL-2 melanoma": {"test_system": "SK-MEL-2 melanoma"}, "786-0 renal": {"test_system": "786-0 renal"}, "SNB-19 CNS": {"test_system": "SNB-19 CNS"}, "UO-31 renal": {"test_system": "UO-31 renal"}, "COLO 205 colon": {"test_system": "COLO 205 colon"}, "HOP-62 NSCLC": {"test_system": "HOP-62 NSCLC"}, "HOP-92 NSCLC": {"test_system": "HOP-92 NSCLC"}, "UACC-62 melanoma": {"test_system": "UACC-62 melanoma"}, "SW-620 colon": {"test_system": "SW-620 colon"}, "SNB-78 CNS": {"test_system": "SNB-78 CNS"}, "HCT-116 colon": {"test_system": "HCT-116 colon"}, "OVCAR-5 ovarian": {"test_system": "OVCAR-5 ovarian"}, "K-562 leukemia": {"test_system": "K-562 leukemia"}, "RXF-631 renal": {"test_system": "RXF-631 renal"}, "SF-268 CNS": {"test_system": "SF-268 CNS"}, "UACC-257 melanoma": {"test_system": "UACC-257 melanoma"}, "OVCAR-8 ovarian": {"test_system": "OVCAR-8 ovarian"}, "XF 498 CNS": {"test_system": "XF 498 CNS"}, "EKVX NSCLC": {"test_system": "EKVX NSCLC"}, "HT29 colon": {"test_system": "HT29 colon"}, "M14 melanoma": {"test_system": "M14 melanoma"}, "CCRF-CEM leukemia": {"test_system": "CCRF-CEM leukemia"}, "TK-10 renal": {"test_system": "TK-10 renal"}, "A549 NSCLC": {"test_system": "A549 NSCLC"}, "DMS 114 small cell lung": {"test_system": "DMS 114 small cell lung"}, "M19-MEL melanoma": {"test_system": "M19-MEL melanoma"}, "NCI-H226 lung": {"test_system": "NCI-H226 lung"}, "U251 CNS": {"test_system": "U251 CNS"}, "RPMI-8226 leukemia": {"test_system": "RPMI-8226 leukemia"}, "DLD-1 colon": {"test_system": "DLD-1 colon"}, "HOP-18 NSCLC": {"test_system": "HOP-18 NSCLC"}, "SNB-75 CNS": {"test_system": "SNB-75 CNS"}, "SK-OV-3 ovarian": {"test_system": "SK-OV-3 ovarian"}, "MALME-3M melanoma": {"test_system": "MALME-3M melanoma"}, "NCI-H23 lung": {"test_system": "NCI-H23 lung"}, "KM12 colon": {"test_system": "KM12 colon"}, "SK-MEL-5 melanoma": {"test_system": "SK-MEL-5 melanoma"}, "SF-539 CNS": {"test_system": "SF-539 CNS"}, "IGROV1 ovarian": {"test_system": "IGROV1 ovarian"}, "SF-295 CNS": {"test_system": "SF-295 CNS"}, "OVCAR-3 ovarian": {"test_system": "OVCAR-3 ovarian"}, "LOX IMVI melanoma": {"test_system": "LOX IMVI melanoma"}, "KM20L2 colon": {"test_system": "KM20L2 colon"}, "SN12C renal": {"test_system": "SN12C renal"}, "OVCAR-4 ovarian": {"test_system": "OVCAR-4 ovarian"}, "NCI-H460 lung": {"test_system": "NCI-H460 lung"}, "SK-MEL-28 melanoma": {"test_system": "SK-MEL-28 melanoma"}, "DMS 273 small cell lung": {"test_system": "DMS 273 small cell lung"}, "HCC-2998 colon": {"test_system": "HCC-2998 colon"}, "ACHN renal": {"test_system": "ACHN renal"}, "CAKI-1 renal": {"test_system": "CAKI-1 renal"}, "HCT-15 colon": {"test_system": "HCT-15 colon"}, "A498 renal": {"test_system": "A498 renal"}},
  "note": "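96-well plates; 48 h exposure; 5 concentrations. Endpoints by linear interpolation between flanking doses. Not reached: highest tested concentration assigned. TGI denotes the concentration required for complete inhibition of growth.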",
  "data": [
    {"compound": "S=c1[nH]c2ccc(Br)cc2c(=S)n1-c1ccccc1", "values": [
      {"measurement": "TGI", "setting": "SK-MEL-2 melanoma", "result": 43.7, "unit": "µM"},
      {"measurement": "TGI", "setting": "786-0 renal", "result": 96.8, "unit": "µM"},
      {"measurement": "TGI", "setting": "SNB-19 CNS", "result": "> 100", "unit": "µM"},
      {"measurement": "TGI", "setting": "UO-31 renal", "result": 59, "unit": "µM"},
      {"measurement": "TGI", "setting": "COLO 205 colon", "result": 47.1, "unit": "µM"},
      {"measurement": "TGI", "setting": "HOP-62 NSCLC", "result": 47, "unit": "µM"},
      {"measurement": "TGI", "setting": "HOP-92 NSCLC", "result": 78.5, "unit": "µM"},
      {"measurement": "TGI", "setting": "UACC-62 melanoma", "result": 32.3, "unit": "µM"},
      {"measurement": "TGI", "setting": "SW-620 colon", "result": "> 100", "unit": "µM"},
      {"measurement": "TGI", "setting": "SNB-78 CNS", "result": "> 100", "unit": "µM"},
      {"measurement": "TGI", "setting": "HCT-116 colon", "result": 43.9, "unit": "µM"},
      {"measurement": "TGI", "setting": "OVCAR-5 ovarian", "result": "> 100", "unit": "µM"},
      {"measurement": "TGI", "setting": "K-562 leukemia", "result": "> 100", "unit": "µM"},
      {"measurement": "TGI", "setting": "RXF-631 renal", "result": "> 100", "unit": "µM"},
      {"measurement": "TGI", "setting": "SF-268 CNS", "result": "> 100", "unit": "µM"},
      {"measurement": "TGI", "setting": "UACC-257 melanoma", "result": 36.9, "unit": "µM"},
      {"measurement": "TGI", "setting": "OVCAR-8 ovarian", "result": "> 100", "unit": "µM"},
      {"measurement": "TGI", "setting": "XF 498 CNS", "result": 36.6, "unit": "µM"},
      {"measurement": "TGI", "setting": "EKVX NSCLC", "result": "> 100", "unit": "µM"},
      {"measurement": "TGI", "setting": "HT29 colon", "result": 47.7, "unit": "µM"},
      {"measurement": "TGI", "setting": "M14 melanoma", "result": 98.6, "unit": "µM"},
      {"measurement": "TGI", "setting": "CCRF-CEM leukemia", "result": "> 100", "unit": "µM"},
      {"measurement": "TGI", "setting": "TK-10 renal", "result": "> 100", "unit": "µM"},
      {"measurement": "TGI", "setting": "A549 NSCLC", "result": "> 100", "unit": "µM"},
      {"measurement": "TGI", "setting": "DMS 114 small cell lung", "result": 54.3, "unit": "µM"},
      {"measurement": "TGI", "setting": "M19-MEL melanoma", "result": 60.7, "unit": "µM"},
      {"measurement": "TGI", "setting": "NCI-H226 lung", "result": 83.6, "unit": "µM"},
      {"measurement": "TGI", "setting": "U251 CNS", "result": 48.4, "unit": "µM"},
      {"measurement": "TGI", "setting": "RPMI-8226 leukemia", "result": 56.7, "unit": "µM"},
      {"measurement": "TGI", "setting": "DLD-1 colon", "result": "> 100", "unit": "µM"},
      {"measurement": "TGI", "setting": "HOP-18 NSCLC", "result": 85.4, "unit": "µM"},
      {"measurement": "TGI", "setting": "SNB-75 CNS", "result": 79.1, "unit": "µM"},
      {"measurement": "TGI", "setting": "SK-OV-3 ovarian", "result": 85.6, "unit": "µM"},
      {"measurement": "TGI", "setting": "MALME-3M melanoma", "result": 32.1, "unit": "µM"},
      {"measurement": "TGI", "setting": "NCI-H23 lung", "result": 65.6, "unit": "µM"},
      {"measurement": "TGI", "setting": "KM12 colon", "result": 72.5, "unit": "µM"},
      {"measurement": "TGI", "setting": "SK-MEL-5 melanoma", "result": 35.5, "unit": "µM"},
      {"measurement": "TGI", "setting": "SF-539 CNS", "result": 44.4, "unit": "µM"},
      {"measurement": "TGI", "setting": "IGROV1 ovarian", "result": 89.1, "unit": "µM"},
      {"measurement": "TGI", "setting": "SF-295 CNS", "result": 55.7, "unit": "µM"},
      {"measurement": "TGI", "setting": "OVCAR-3 ovarian", "result": 78.3, "unit": "µM"},
      {"measurement": "TGI", "setting": "LOX IMVI melanoma", "result": 85.1, "unit": "µM"},
      {"measurement": "TGI", "setting": "KM20L2 colon", "result": "> 100", "unit": "µM"},
      {"measurement": "TGI", "setting": "SN12C renal", "result": 98.7, "unit": "µM"},
      {"measurement": "TGI", "setting": "OVCAR-4 ovarian", "result": "> 100", "unit": "µM"},
      {"measurement": "TGI", "setting": "NCI-H460 lung", "result": 45.2, "unit": "µM"},
      {"measurement": "TGI", "setting": "SK-MEL-28 melanoma", "result": 59.9, "unit": "µM"},
      {"measurement": "TGI", "setting": "DMS 273 small cell lung", "result": 60.7, "unit": "µM"},
      {"measurement": "TGI", "setting": "HCC-2998 colon", "result": 40.8, "unit": "µM"},
      {"measurement": "TGI", "setting": "ACHN renal", "result": 79.3, "unit": "µM"},
      {"measurement": "TGI", "setting": "CAKI-1 renal", "result": "> 100", "unit": "µM"},
      {"measurement": "TGI", "setting": "HCT-15 colon", "result": 63.2, "unit": "µM"},
      {"measurement": "TGI", "setting": "A498 renal", "result": 98.4, "unit": "µM"}
    ]}
  ]
}
